Measurements published in patent US8968663B2, “Monitoring membrane-bound proteins” (University of Utah Research Foundation, priority 2011, dated 2015).

Key:
[1] = test system: ShakerB-IR K^+ ion channel; assay: RF (500 kHz) impedance interrogation of ShakerB-IR expressing Xenopus oocytes under voltage clamp; format: cell-based; details: ~120 μM Cu^2+, 500 kHz RF signal, FIG. 10
Procedure: Complementary deoxyribonucleic acid (cDNA) for the Shaker ion-channel variant ShakerB-IR (inactivation removed) was transformed in E. coli and linearized using the restriction enzyme, Kpn-1. cRNA was transcribed from linearized DNA, and 32 nL/cell of the transcribed RNA was injected into Xenopus oocytes. Recordings were done 24-48 hours after injection to allow time for protein expression. Currents were measured using two-microelectrode voltage clamp to verify ShakerB-IR ion channel expression. […]
(§1) RF voltage measurements were sampled through a head-stage voltage-follower operational amplifier (OPA356, Texas Instruments, Dallas, Tex.). The RF signal was high pass filtered (100 kHz, 48 DB/oct Bessel HPF; SIM965, Stanford Research Systems, Sunnyvale, Calif.) and detected by a lock-in amplification (0 integration time, SR844, Stanford Research Systems, Sunnyvale, Calif.). The quadrature outputs on the lock-in amplifier detected changes on the order of 10 microvolts, and time delays caused by the lock-in amplifier and HPF were accounted for prior to data analysis. TEVC data (command voltage, sensed voltage, measured current) and RF data (quadrature outputs from the lock-in amplifier) were sampled every 20 μs using a 16 bit A-D converter (ITC-18, HEKA Inst. Bellmore, N.Y.). […]

[2] = test system: control oocytes (endogenous protein response); assay: RF (500 kHz) impedance interrogation of control Xenopus oocytes under voltage clamp; format: cell-based; details: ~120 μM Cu^2+, 500 kHz RF signal, FIG. 10
Excerpt: (§2) Oocytes were positioned into a recording chamber consisting of an RF belt electrode surrounding the meridian of the cell and a ground electrode located in the oocyte media above an axial pole of the cell. Two glass micropipettes (1-3 MΩ access resistance) filled with 3M KCL were carefully guided into the oocyte using an upright microscope (Zeiss AxioTech). One micropipette was attached to a voltage-measuring headstage (HS-2Ax1 LU, Molecular Devices, Sunnyvale, Calif.) and the second micropipette was attached to a current-injecting headstage (HS-2Ax10MGU, Molecular Devices, Sunnyvale, Calif.). […]
as §1

[3] = test system: ShakerB-IR K^+ ion channel; details: extracellular application; stated as known; cited from earlier work
[4] = test system: ShakerB-IR K^+ ion channel; assay: Two-electrode voltage clamp of ShakerB-IR expressing Xenopus oocytes with Cu^2+ applied as ion channel blocker; format: cell-based; details: ~120 μM Cu^2+ pipetted above the cell, FIG. 10
Procedure: Complementary deoxyribonucleic acid (cDNA) for the Shaker ion-channel variant ShakerB-IR (inactivation removed) was transformed in E. coli and linearized using the restriction enzyme, Kpn-1. cRNA was transcribed from linearized DNA, and 32 nL/cell of the transcribed RNA was injected into Xenopus oocytes. Recordings were done 24-48 hours after injection to allow time for protein expression. Currents were measured using two-microelectrode voltage clamp to verify ShakerB-IR ion channel expression. Oocytes were stored in Superbarths Oocyte media (88 mM NaCl, 1 mM KCl, 0.41 mM CaCl2, 0.33 mM Ca(NO3)2, 1 mM MgSO4, 2.4 mM NaHCO3, 10 mM HEPES, 1 mM pyruvate and 50 μg/ml gentamicin, titrated using NaOH to a pH of 7.4) at 17° Celsius (C.). Oocytes were also bathed in this media during RF recording.
as §2

[Cu+2] [Cu^2+]
effect on charge displacement within the RF electric field (voltage-dependent RF impedance) [1]: increased charge displacement within the RF electric field
effect on charge displacement within the RF electric field in control cells [2]: not observed to the same extent in control cells
known effect of extracellular Cu^2+ on K^+ conductance [3]: shift the K^+ conductance to more depolarized levels
effect on ShakerB-IR K^+ current [4]: blocked the ShakerB-IR K^+ current
